Laboratory results published in PMC12292445, “Physiologically Based Pharmacokinetic Modeling for Predicting Drug Levels After Bariatric Surgery: Vardenafil Exposure Before vs. After Gastric Sleeve/Bypass” (Biomolecules, 2025).
≈ marks a conversion by molar mass, not a printed value. Where two headings read alike, the source gives them in different places. Blank lines part the entries; values can stand above or below the molecule they belong to.

Tests used:
[1] = stated in discussion, no source given; cited from earlier work
[2] = design: method as in earlier work; conditions: healthy fasted humans, digitized mean profile, cited from earlier work
[3] = physchem; assay type: physicochemical
Method: The equilibrium solubility of vardenafil was determined by the previously described shake-flask method. Four different medium pHs were used: pH 1 and pH 3 (0.2 M maleic acid), pH 5 (0.2 M acetic acid), and pH 7 (0.2 M dihydrogen phosphate). Quadruplet (n = 4) samples of each buffer pH were prepared with drug powder added in excess, until saturation, to vials with 500 µL medium solution. Vial incubation was at 37 °C, with 200 rpm sample shaking for 24 h (Orbital Shaker Incubator, MRC Laboratory Instruments, Holon, Israel). Sample contents were then transferred to Eppendorf tubes for a 10 min centrifugation (Centrifuge 5430 R, Eppendorf®, Hamburg, Germany) at 20,817 rcf and 37 °C. Obtained supernatants were diluted as needed and immediately analyzed by UPLC-PDA (Table 1).

[4] = clinical
Method: Values were either obtained from the literature, in silico predictions (ADMET Predictor® module, version 10.4.0.0; Simulations Plus Inc., Lancaster, CA, USA) based on the drug’s molecular structure, or experimentally determined. pH-dependent solubility data were input as an .spd file and used to fit the solubility factors in the solubility model. Drug dissolution along the GIT was calculated using the software default Johnson equation [58] based on the drug’s solubility and particle size. With the lack of data on commercial product drug particle size, 100 µm was chosen as an approximate value for all simulations. Regarding poor aqueous solubility, bile salts’ effect on drug solubility/dissolution was also accounted for. The drug precipitation time was set as the default 900 s. […] The distribution and elimination PK parameters of vardenafil were based on available data of in vivo plasma concentration over time following IV and PO drug administration, using the software-integrated PKPlus^TM module and optimized further while keeping the final values within the reported literature range (Table 3).

[5] = In vitro dissolution of whole tablets under pre- vs post-bariatric gastric conditions; assay type: physicochemical; conditions: Levitra 20 mg tablet
Method: The dissolution of whole tablet vardenafil (20 mg) products was studied in three different conditions, as previously described (n = 4 for each condition): (1) pH 1 maleic acid, 250 mL medium (pre-surgery conditions), with the USP dissolution apparatus II (Premiere 5100, Distek®, North Brunswick, NJ, USA), at 100 rpm paddle rotation; […] This rotation velocity was calculated, addressing the following parameters: the paddle size (D), volume of fluid (V), and agitation strength (ε), as follows: εlong/εshort=RPMlong3 × Dlong5/Vlong/RPMshort3 × Dshort5/Vshort These adjusted experimental conditions mimic pre- vs. post-bariatric intragastric dissolution conditions, including the pH, temperature, fluid volume, and contractility force, and were thus preferred over standard, compendial dissolution methods. Next, 300 µL samples were drawn for 90 min at 10 different time points and then filtered prior to ultra-performance liquid chromatography (UPLC) analysis (Table 1).

[6] = physchem; assay type: physicochemical; conditions: human; for solubility: thermodynamic from solid
Method: The equilibrium solubility of vardenafil in gastric content was also tested using the shake-flask method mentioned above, which followed a procedure that had been recently described. In short, excess drug was added to glass vials containing samples of gastric content aspirated from three patients (1 SG, 1 RYGB, and 1 OAGB) during bariatric procedure time. Aspiration was performed through the nasogastric tube at three time points: before, immediately after , and 24 h post-surgery. Study protocol approval was given by the Ben-Gurion University School of Medicine institutional review board (institutional board request number 0248-18-SOR), and informed consent was obtained from all the participants prior to surgery. Following gastric content collection, pH was immediately measured and recorded. […] As vardenafil hydrochloride powder modified the pH of the post-bariatric gastric fluid, pH was adjusted with a small volume pH 7 buffer, as necessary.

[7] = estimated with PKPlus from in vivo IV and oral data, then optimized

SMILES: CCCc1nn(C)c2c(=O)[nH]c(-c3cc(S(=O)(=O)N4CCN(C)CC4)ccc3OCC)nc12 [sildenafil]
- pKa [1]: ~ 7

- solubility at 24 h ([3]; 37 °C, pH 3, aqueous buffer, thermodynamic from solid): > 30 mg/mL
- solubility at 24 h ([3]; 37 °C, pH 5, aqueous buffer, thermodynamic from solid): 27.4 mg/mL (≈ 56.1 mM)
- solubility at 24 h ([3]; 37 °C, pH 7, aqueous buffer, thermodynamic from solid): 0.05 mg/mL (≈ 0.102 mM)
- Decrease in saturation solubility ([3]; 24 h): over 600 fold
- Solubility at 37 °C ([3]; 24 h, pH 1): 30 mg/mL (≈ 61.4 mM)
- Solubility at 37 °C ([3]; 24 h, pH 3): 30 mg/mL (≈ 61.4 mM)
- solubility at 24 h ([3]; pH 1): > 30 mg/mL
- Distribution constant k12 [4, 7]: 3.090 h⁻¹
- Distribution constant k13 [4, 7]: 0.448 h⁻¹
- Distribution constant k21 [4, 7]: 2.100 h⁻¹
- Distribution constant k31 [4, 7]: 0.250 h⁻¹
- Vd ([4]; human): 0.8 L/kg
- clearance ([4]; human): 15.4 mL/min/kg
- Dissolution (dose dissolved) ([5]; post-OAGB conditions, pH 7, 50 mL): 4%
- Dissolution (dose dissolved) ([5]; post-SG conditions, pH 5, 50 mL): 100%
- Dissolution (dose dissolved) ([5]; pre-surgery conditions, pH 1, 250 mL): 100%
- Lower ex vivo solubility after vs. before the surgery [6]: > 500 fold
- solubility ([6]; pH 2, plasma or biological fluid): > 30 mg/mL
- solubility ([6]; pH 7, plasma or biological fluid): 0.06 mg/mL (≈ 0.123 mM)
SMILES: CCCc1nc(C)c2c(=O)[nH]c(-c3cc(S(=O)(=O)N4CCN(CC)CC4)ccc3OCC)nn12 [vardenafil]
- AUC0−inf, observed ([2]; 10 mg single oral dose): 27.29 ng·h/mL
- Cmax, observed ([2]; 10 mg single oral dose): 7.20 ng/mL
- Tmax, observed ([2]; 10 mg single oral dose): 57 min
- AUC0−inf, observed ([2]; 20 mg single oral dose): 41.86 ng·h/mL
- Cmax, observed ([2]; 20 mg single oral dose): 16.30 ng/mL
- Tmax, observed ([2]; 20 mg single oral dose): 46.8 min
- pKa [1]: ~ 7
